From article PMC9311798, “A Novel Class of Potent Anti-Tyrosinase Compounds with Antioxidant Activity, 2-(Substituted phenyl)-5-(trifluoromethyl)benzo[d]thiazoles: In Vitro and In Silico Insights” (Antioxidants, 2022)
“Also recorded” adds a separate entry of the source.

What was measured:
[1] = target: T1, cellular tyrosinase in B16F10 cells (Mus musculus, UniProt P11344); assay: Cellular tyrosinase activity (L-DOPA oxidation) in α-MSH/IBMX-stimulated cells; type: cell-based, murine
T1 construct: endogenous in cells; host or cells: B16F10 murine melanoma cells, stimulated with alpha-MSH and IBMX
T1 sequence (P11344 19-533): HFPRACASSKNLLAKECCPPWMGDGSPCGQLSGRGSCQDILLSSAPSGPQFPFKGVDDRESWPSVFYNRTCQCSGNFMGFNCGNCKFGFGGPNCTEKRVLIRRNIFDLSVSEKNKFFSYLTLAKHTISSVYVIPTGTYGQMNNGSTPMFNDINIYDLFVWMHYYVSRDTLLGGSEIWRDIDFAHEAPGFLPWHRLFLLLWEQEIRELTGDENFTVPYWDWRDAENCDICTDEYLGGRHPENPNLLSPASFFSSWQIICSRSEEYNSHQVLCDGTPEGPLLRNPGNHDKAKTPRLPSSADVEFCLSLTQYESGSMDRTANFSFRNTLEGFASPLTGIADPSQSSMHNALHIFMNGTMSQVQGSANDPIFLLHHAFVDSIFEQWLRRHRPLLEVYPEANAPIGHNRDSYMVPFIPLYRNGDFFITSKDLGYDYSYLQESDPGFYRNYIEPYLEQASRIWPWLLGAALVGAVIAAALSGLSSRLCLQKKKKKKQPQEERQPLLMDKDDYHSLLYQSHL
Procedure: Cellular tyrosinase activity was assessed by measuring the oxidation rate of L-DOPA as previously described, with minor modifications. In brief, B16F10 cells were seeded in a 6-well plate at 1 × 10^5 cells/well, and allowed to adhere to well bottoms for 24 h, as described in Section 2.3.5. […]. Cells were then rinsed twice with PBS, exposed to 100 µL of lysis buffer solution (90 µL of 50 mM phosphate buffer (pH 6.5), 5 µL of 2 mM PMSF, and 5 µL of 20% Triton X-100), and lysed at −80 °C for 30 min. After defrosting, cell lysates were transferred to microcentrifuge tubes and centrifuged at 12,000 rpm for 30 min at 4°C, and supernatants (80 µL) were mixed with 20 µL of L-DOPA (2 mg/mL) in a 96-well plate, and incubated for 10 min at 37 °C. Absorbances were measured at 475 nm using a microplate reader (VersaMax^TM, Molecular Devices, Sunnyvale, CA, USA).

[2] = tested on: TRP-1, TRP-2, and tyrosinase mRNA in B16F10 cells; assay: qRT-PCR of melanogenesis-related genes; type: cell-based, murine; conditions: 24 h; GAPDH internal control; versus untreated controls
Procedure: Total RNAs from cells were extracted using the RiboEx Total RNA solution (GeneAll Biotechnology, Seoul, Korea). Cells in 6-well plates (0.5 mL, 1 × 10^5 cells per well) were transferred to tubes, to which chloroform (0.1 mL) was added, and shaken vigorously for 30 s. Aqueous phases were transferred to fresh tubes, and an equal volume of isopropanol was added. Samples were then incubated for 15 min at 4 °C and centrifuged at 12,000× g for 15 min at 4 °C. After discarding the supernatants, RNA pellets were washed once with 0.5 mL of 75% ethanol, vortexed briefly, and centrifuged at 7500× g for 5 min at 4 °C. Pellets were dried for 10–15 min and dissolved in diethyl pyrocarbonate (DEPC)-treated water. Complementary DNA (cDNA) was synthesized from the total RNA (2 µg) using SuPrime Script RT Premix with random hexamer cDNA Synthesis Kit (GeNet Bio, Daejeon, Korea), in accordance with the manufacturers’ instructions. Quantitative qRT-PCR amplification was performed using SensiFAST^TM SYBR® No-ROX dye (Bioline, London, UK) on the CFX Connect System (Bio-Rad Laboratories, Hercules, CA, USA). The primers specific to TRP-1, TRP-2, tyrosinase, or GAPDH were purchased from Bioneer Inc. (Daejeon, Korea). Relative gene expressions were assessed using GAPDH as the internal control.

[3] = tested on: B16F10 murine melanoma cells; assay: Intracellular melanin content in α-MSH/IBMX-stimulated cells; type: cell-based
Procedure: The cultured cells were rinsed with PBS twice and pellets were dissolved in 200 µL of 1N-NaOH solution containing 10% DMSO for 1 h at 60 °C. Cell lysates were then transferred to a 96-well plate, and the melanin absorbances were measured in aqueous DMSO at 405 nm using a microplate reader (VersaMax^TM, Molecular Devices, Sunnyvale, CA, USA).

[4] = target: T2, mushroom tyrosinase (Agaricus bisporus, UniProt C7FF04); assay: Kinetic studies on the inhibition of mushroom tyrosinase (Lineweaver–Burk and Dixon plots); type: biochemical; conditions: for Inhibition type: Lineweaver–Burk plots; for Ki: Dixon plot; for Vmax: regardless of 1b concentration
T2 construct: purchased Sigma-Aldrich
Procedure: Lineweaver–Burk plots of compound 1b were acquired in the presence of L-tyrosine or L-DOPA as substrates. In brief, 10 µL aliquots of DMSO containing compound 1b (final concentrations: 0, 0.1, 0.2, or 0.4 µM in L-tyrosine, and 0, 1, 2, or 4 μM in L-DOPA) were added to the wells of a 96-well plate containing 170 µL of an aqueous solution (final concentrations: 1.0, 2.0, 4.0, 8.0, or 16.0 mM) of L-tyrosine or L-DOPA, sodium phosphate buffer (final concentration: 14.7 mM, pH 6.5), and 20 µL of mushroom tyrosinase (200 units/mL). Initial rates of dopachrome production were determined by measuring the increases in optical density at 475 nm (ΔOD475/min) using a microplate reader (VersaMax^TM, Molecular Devices, Sunnyvale, CA, USA). Maximal velocity (Vmax) was obtained from Lineweaver–Burk plots obtained using five different L-tyrosine or L-DOPA concentrations. Modes of tyrosinase inhibition were determined using plot convergence points.

[5] = 10 µM, compared with kojic acid 20 µM

T2 sequence (C7FF04 1-392): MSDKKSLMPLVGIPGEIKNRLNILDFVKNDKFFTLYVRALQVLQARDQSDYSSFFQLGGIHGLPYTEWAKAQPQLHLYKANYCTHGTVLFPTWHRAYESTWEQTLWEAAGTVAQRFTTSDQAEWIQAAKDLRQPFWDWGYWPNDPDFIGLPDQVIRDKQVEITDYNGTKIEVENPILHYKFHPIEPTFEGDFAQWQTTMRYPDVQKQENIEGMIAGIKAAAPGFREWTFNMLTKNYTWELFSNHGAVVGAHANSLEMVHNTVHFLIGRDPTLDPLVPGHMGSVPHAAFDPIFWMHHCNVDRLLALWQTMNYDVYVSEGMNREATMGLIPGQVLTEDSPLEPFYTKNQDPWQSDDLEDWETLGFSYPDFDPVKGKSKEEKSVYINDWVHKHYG

## Oc1ccc(-c2nc3cc(C(F)(F)F)ccc3s2)c(O)c1 [Compound 1b, 4-(5-(Trifluoromethyl)benzo[d]thiazol-2-yl)benzene-1,3-diol]
[1]; [5]
  cellular tyrosinase activity: reduced tyrosinase activity to that achieved by 20 µM kojic acid
[1]; 20 µM
  cellular tyrosinase activity: reduced tyrosinase activity to the untreated control level
[1]; 5, 10, 20 µM, IBMX + α-MSH, 48 h
  effect on cellular tyrosinase activity: significantly and concentration-dependently suppressed
other
  melting point: 236.2 to 238.2 °C
[2]
  mRNA expression levels of the three MITF target genes (TRP-1, TRP-2, tyrosinase): significantly and concentration-dependently suppressed
[3]; [5]
  inhibition of α-MSH/IBMX-induced intracellular melanin increase: more potently inhibited α-MSH/IBMX-induced increases in melanin than kojic acid at 20 µM
[3]; 20 µM, α-MSH/IBMX co-treated cells
  intracellular melanin content, lower than untreated control group: 20%
[3]; 5, 10, 20 µM, α-MSH + IBMX, 48 h
  effect on intracellular melanin content: significantly and concentration-dependently reduced intracellular melanin increases
[4]; L-DOPA as substrate
  Inhibition type: competitive inhibitor; also recorded: L-DOPA (Inhibition Type ^a: Competitive)
[4]; L-DOPA
  Ki: 2450 nM
  Vmax: 0.00497 mM/min
[4]; L-tyrosine as substrate
  Inhibition type: competitive inhibitor; also recorded: L-Tyrosine (Inhibition Type ^a: Competitive)
[4]; L-tyrosine
  Ki: 37.6 nM
  Vmax: 0.0101 mM/min
